# Results from patent US9701676B2, “Pro-neurogenic compounds” (Board of Regents of The University of Texas System, priority 2012, dated 2017).
# System: proliferating neural precursor cells in the hippocampus (subgranular layer of the dentate gyrus)
# Assay: standard in vivo hippocampal neurogenesis assay (BrdU labelling, week-long intracranial mini-pump infusion)
# Design: species or system mouse (C57/B6)
# Details: 10 μM concentration, seven days of infusion at 0.5 μL/hour, daily IP BrdU; four 12 week old adult male C57/B6 mice; vehicle 14.5
# Procedure: Compounds were administered at a concentration of 10 μM for each molecule. After seven days of infusion at a constant rate of 0.5 μL/hour, a total of 84 μL of volume will have left the pump (0.00084 μMoles) and entered the cerebrospinal fluid. The average volume of a brain from a 12 week old male, C57/B6 mouse in the study is 500 mm^3. […] Under these conditions, at the end of one week of infusion each compound would be present at 1.7 μMolar concentration. Since the actual amount of chemical compound in the brain is likely to be only a fraction of this predicted level, it is reasonable to estimate that compounds were administered at mid to low-nanomolar concentrations.
# During compound infusion, animals were intraperitoneally (IP) injected daily with the thymidine analog, bromodeoxyuridine (BrdU), as a means of scoring the birth and survival of proliferating neural precursor cells in the hippocampus. Because both social interaction and voluntary exercise are known to stimulate hippocampal neurogenesis, mice were housed individually without access to running wheels throughout the screening period. Following the week-long period of compound administration, animals were perfused and sacrificed. Dissected brain tissue was fixed, embedded, sectioned, stained with antibodies to BrdU, and evaluated by light microcopy as a means of quantifying neurogenesis and survival of newborn neural precursor cells localized to the subgranular layer of the dentate gyms on the brain hemisphere contralateral to the side of mini-pump cannulation. Every fifth section throughout the entire rostral-caudal extent of the hippocampus was analyzed, and the total number of BrdU+ cells was normalized against the measured volume of the dentate gyms.
# Intracranial infusions of either fibroblast growth factor 2 (FGF-2) or artificial cerebral spinal fluid (aCSF) vehicle via the same, week-long protocol were employed as positive and negative controls.
# Compounds were evaluated for pro-neurogenic efficacy/neuroprotection in a standard in vivo hippocampal neurogenesis assay at 10 μM concentration in four 12 week old adult male C57/B16 mice.
row,Structure (SMILES),(×10^−06) BrdU+ cells/mm^3 dentate gyrus
1,"NC(Cc1c[nH]c2ccc(Br)cc12)C(=O)O (racemic) [P7C3-S207, 5-bromo-DL-tryptophan, reference compound]",32.4 (×10^−06) BrdU+ cells/mm^3
2,COc1cccc(NCC(O)CN2c3ccc(Br)cc3CCc3cc(Br)ccc32)c1 (centres unmarked) [P7C3-S76],28.3 (×10^−06) BrdU+ cells/mm^3
3,"OC(CN1c2ccccc2CCc2ccccc21)Cn1ccc2ccccc21 (centres unmarked) [P7C3-S132, 1-(10,11-dihydro-5H-dibenzo[b,f]azepin-5-yl)-3-(1H-indol-1-yl)propan-2-ol]",22.8 (×10^−06) BrdU+ cells/mm^3
4,"OC(CN1c2ccccc2CCc2ccccc21)Cn1c2ccccc2c2ccccc21 (centres unmarked) [P7C3-S133, 1-(9H-carbazol-9-yl)-3-(10,11-dihydro-5H-dibenzo[b,f]azepin-5-yl)propan-2-ol]",20.2 (×10^−06) BrdU+ cells/mm^3
5,"OC(CSc1ccccc1)CN1c2ccccc2CCc2ccccc21 (centres unmarked) [P7C3-S134, 1-(10,11-dihydro-5H-dibenzo[b,f]azepin-5-yl)-3-(phenylthio)propan-2-ol]",19.4 (×10^−06) BrdU+ cells/mm^3
6,"OC(COc1ccccc1)CN1c2ccccc2CCc2ccccc21 (centres unmarked) [P7C3-S135, 1-(10,11-dihydro-5H-dibenzo[b,f]azepin-5-yl)-3-phenoxypropan-2-ol]",14.2 (×10^−06) BrdU+ cells/mm^3
7,"CN(C)CC(O)CN1c2ccccc2CCc2ccccc21 (centres unmarked) [P7C3-S139, 1-(10,11-dihydro-5H-dibenzo[b,f]azepin-5-yl)-3-(dimethylamino)propan-2-ol]",24.9 (×10^−06) BrdU+ cells/mm^3
8,"NCC(O)CN1c2ccccc2CCc2ccccc21 (centres unmarked) [P7C3-S140, 1-amino-3-(10,11-dihydro-5H-dibenzo[b,f]azepin-5-yl)propan-2-ol]",23.4 (×10^−06) BrdU+ cells/mm^3
9,"CNCC(O)CN1c2ccccc2CCc2ccccc21 (centres unmarked) [P7C3-S143, 1-(10,11-dihydro-5H-dibenzo[b,f]azepin-5-yl)-3-(methylamino)propan-2-ol]",14.5 (×10^−06) BrdU+ cells/mm^3
10,"CC(C)NCC(O)CN1c2ccccc2CCc2ccccc21 (centres unmarked) [P7C3-S144, 1-(10,11-dihydro-5H-dibenzo[b,f]azepin-5-yl)-3-(isopropylamino)propan-2-ol]",18.1 (×10^−06) BrdU+ cells/mm^3
11,"CC(C)(C)NCC(O)CN1c2ccccc2CCc2ccccc21 (centres unmarked) [P7C3-S145, 1-(tert-butylamino)-3-(10,11-dihydro-5H-dibenzo[b,f]azepin-5-yl)propan-2-ol]",25 (×10^−06) BrdU+ cells/mm^3
12,"CN(C)CC(F)CN1c2ccccc2CCc2ccccc21 (centres unmarked) [P7C3-S148, 3-(10,11-dihydro-5H-dibenzo[b,f]azepin-5-yl)-2-fluoro-N,N-dimethylpropan-1-amine]",22.6 (×10^−06) BrdU+ cells/mm^3
13,"CN(C)C(CF)CN1c2ccccc2CCc2ccccc21 (centres unmarked) [P7C3-S149, 1-(10,11-dihydro-5H-dibenzo[b,f]azepin-5-yl)-3-fluoro-N,N-dimethylpropan-2-amine]",23.2 (×10^−06) BrdU+ cells/mm^3
14,"CNCC(F)CN1c2ccccc2CCc2ccccc21 (centres unmarked) [P7C3-S152, 3-(10,11-dihydro-5H-dibenzo[b,f]azepin-5-yl)-2-fluoro-N-methylpropan-1-amine]",26.8 (×10^−06) BrdU+ cells/mm^3
15,"COc1cccc(NCC(O)CN2c3ccccc3CCc3ccccc32)c1 (centres unmarked) [P7C3-S158, 1-(10,11-dihydro-5H-dibenzo[b,f]azepin-5-yl)-3-((3-methoxyphenyl)amino)propan-2-ol]",25 (×10^−06) BrdU+ cells/mm^3
16,"Brc1ccc2[nH]c3ccc(Br)cc3c2c1 [P7C3-S162, 3,6-dibromo-9H-carbazole]",25.2 (×10^−06) BrdU+ cells/mm^3
17,"Cn1c2ccc(Br)cc2c2cc(Br)ccc21 [P7C3-S163, 3,6-dibromo-9-methyl-9H-carbazole]",24.2 (×10^−06) BrdU+ cells/mm^3
18,"CC(C)(O)Cn1c2ccc(Br)cc2c2cc(Br)ccc21 [P7C3-S169, 1-(3,6-dibromo-9H-carbazol-9-yl)-2-methylpropan-2-ol]",18.4 (×10^−06) BrdU+ cells/mm^3
19,"OC(CN1c2ccccc2CCc2ccccc21)CN1c2ccccc2CCc2ccccc21 [P7C3-S170, 1,3-bis(10,11-dihydro-5H-dibenzo[b,f]azepin-5-yl)propan-2-ol]",22.4 (×10^−06) BrdU+ cells/mm^3
20,"OCCn1c2ccc(Br)cc2c2cc(Br)ccc21 [P7C3-S171, 2-(3,6-dibromo-9H-carbazol-9-yl)ethanol]",26.2 (×10^−06) BrdU+ cells/mm^3
21,"OC(CNc1cccc2ccccc12)Cn1c(-c2ccccc2)cc2ccccc21 (centres unmarked) [P7C3-S185, 1-(naphthalen-1-ylamino)-3-(2-phenyl-1H-indol-1-yl)propan-2-ol]",25.1 (×10^−06) BrdU+ cells/mm^3

row,Structure (SMILES),(×10^−06) BrdU+ cells/mm^3 dentate gyrus
1,"[N-]=[N+]=NCC(F)Cn1c2ccc(Br)cc2c2cc(Br)ccc21 (centres unmarked) [P7C3-S189, 9-(3-azido-2-fluoropropyl)-3,6-dibromo-9H-carbazole]",13.7 (×10^−06) BrdU+ cells/mm^3
2,"COc1ccc2[nH]cc(CCNC(C)=O)c2c1 [P7C3-S193, Melatonin, reference compound]",15.6 (×10^−06) BrdU+ cells/mm^3
3,"CCOC(=O)C1=C[C@]2(CC)CCCN3CCc4c(n1c1ccccc41)[C@@H]32 [P7C3-S199, Vinpocetine, reference compound]",26.5 (×10^−06) BrdU+ cells/mm^3
4,"CCC(C)N(C)C(=O)c1cc2ccccc2c(-c2ccccc2Cl)n1 (centres unmarked) [P7C3-S200, PK 11195, reference compound]",22.1 (×10^−06) BrdU+ cells/mm^3
5,"CCCCCCN(CCCCCC)C(=O)Cc1c(-c2ccc(F)cc2)[nH]c2ccccc12 [P7C3-S201, N,N-Dihexyl-2-(4-fluorophenyl)indole-3-acetamide, reference compound]",24.8 (×10^−06) BrdU+ cells/mm^3
6,"CN1C(=O)CN=C(c2ccc(Cl)cc2)c2cc(Cl)ccc21 [P7C3-S203, 4′-chlorodiazepam, reference compound]",21.5 (×10^−06) BrdU+ cells/mm^3
7,"O=C(O)c1cc2c(cn1)[nH]c1ccc(Br)cc12 [P7C3-S206, 6-bromo-9H-pyrido[3,4-b]indole-3-carboxylic acid]",29.6 (×10^−06) BrdU+ cells/mm^3
8,"COc1ccc2[nH]c3ccc(Br)cc3c2c1 [P7C3-S209, 3-bromo-6-methoxy-9H-carbazole]",30 (×10^−06) BrdU+ cells/mm^3
9,"O=C(O)CN1c2ccccc2CCc2ccccc21 [P7C3-S210, 2-(10,11-dihydro-5H-dibenzo[b,f]azepin-5-yl)acetic acid]",21.4 (×10^−06) BrdU+ cells/mm^3
10,"CC(C(=O)O)n1c2ccc(Br)cc2c2cc(Br)ccc21 (centres unmarked) [P7C3-S211, 2-(3,6-dibromo-9H-carbazol-9-yl)propanoic acid]",23 (×10^−06) BrdU+ cells/mm^3
11,"c1ccc2c(c1)CCc1ccccc1N2 [P7C3-S212, iminodibenzyl, reference compound]",20.5 (×10^−06) BrdU+ cells/mm^3
12,"N#Cc1ccc2[nH]c3ccc(Br)cc3c2c1 [P7C3-S216, 6-bromo-9H-carbazole-3-carbonitrile]",25.9 (×10^−06) BrdU+ cells/mm^3
13,"N#Cc1[nH]c2ccc(Br)cc2c1N [P7C3-S222, 3-amino-5-bromo-1H-indole-2-carbonitrile]",30.1 (×10^−06) BrdU+ cells/mm^3
14,"N#Cc1ccc2c(c1)c1cc(Br)ccc1n2CC(=O)O [P7C3-S224, 2-(3-bromo-6-cyano-9H-carbazol-9-yl)acetic acid]",20.2 (×10^−06) BrdU+ cells/mm^3
15,"O=C(O)c1ccc2[nH]c3ccc(Br)cc3c2c1 [P7C3-S225, 6-bromo-9H-carbazole-3-carboxylic acid]",30.4 (×10^−06) BrdU+ cells/mm^3
16,"O=C(O)Cn1c2ccc(Br)cc2c2cc(C(=O)O)ncc21 [P7C3-S227, 6-bromo-9-(carboxymethyl)-9H-pyrido[3,4-b]indole-3-carboxylic acid]",25.8 (×10^−06) BrdU+ cells/mm^3
17,"Cc1ccc2[nH]c3ccc(Br)cc3c2c1 [P7C3-S228, 3-bromo-6-methyl-9H-carbazole]",40.3 (×10^−06) BrdU+ cells/mm^3
18,"O=C(Cn1c2ccc(Br)cc2c2cc(Br)ccc21)NS(=O)(=O)c1ccccc1 [P7C3-S230, 2-(3,6-dibromo-9H-carbazol-9-yl)-N-(phenylsulfonyl)acetamide]",30.5 (×10^−06) BrdU+ cells/mm^3
19,"O=C(Cn1c2ccc(Br)cc2c2cc(Br)ccc21)NO [P7C3-S231, 2-(3,6-dibromo-9H-carbazol-9-yl)-N-hydroxyacetamide]",26.1 (×10^−06) BrdU+ cells/mm^3
20,"CS(=O)(=O)NC(=O)Cn1c2ccc(Br)cc2c2cc(Br)ccc21 [P7C3-S232, 2-(3,6-dibromo-9H-carbazol-9-yl)-N-(methylsulfonyl)acetamide]",16.8 (×10^−06) BrdU+ cells/mm^3
